This test has as its system T1, CnGntR.
T1 construct: gene gntR; full-length TR gene with PH16_RS19190-mRFP1 reporter on plasmid pEA007; host C. necator H16; regulator of cluster H16_RS19175-H16_RS19195, its own locus tag inferred
Briefly: mRFP1 reporter dose-response in cells, Hill fit. The test is classed as cell-based, Cupriavidus necator. The settings on record: inducer of transcriptional regulator; half-maximal reporter output; host C. necator H16; minimal medium with 0.4% gluconate, 30 °C, 6 h; Hill coefficient 1.19; read-out: Km. From the text: mRFP1 reporter dose-response in cells, Hill fit on CnGntR

SMILES strings stand for the structures.

Turning to `C[C@H](O)C(=O)O` [L-lactate], the EC50 was 670 ± 210 µM.

For the origin of these results see article PMC8827060, “Identification and characterization of L- and D-lactate-inducible systems from Escherichia coli MG1655, Cupriavidus necator H16 and Pseudomonas species” (Scientific Reports, 2022).
